Data taken from patent US9951025B2, “Halogenopyrazoles as inhibitors of thrombin” (VERSEON CORPORATION, priority 2013, dated 2018).

Each compound was assayed against T1, Human thrombin (Homo sapiens, UniProt P00734) (assay: thrombin protease inhibition assay, chromogenic substrate S-2238). Conditions: 3 nM human thrombin, 125 μM S-2238, 10 min pre-incubation, RT.
T1 construct: purchased Haematologic Technologies Inc
Type: biochemical
Description: Compounds described herein can be assayed, by a variety of methods known in the art and described herein, for inhibition of biological activity, e.g., protease activity, of a variety of proteins, e.g., thrombin.
The thrombin activity reported herein (e.g., Table A) was obtained as follows. […] Thrombin was assayed in buffer containing 0.05 M Tris (pH 7.4), 0.015 M NaCl and 0.01% PEG-8000. The final concentration of enzyme used was 3 nM thrombin. […] All assays were performed in 96-well microtiter plates at room temperature (RT). […] Inhibitor IC50 values were determined by adding test compound as ten point, three-fold serial dilutions in buffer solution, as known in the art. The plate was read at 10 minutes after substrate addition. The IC50 was calculated by plotting the percent (%) inhibition against compound concentration and fitting the data to a constrained four parameter sigmoidal curve, as known in the art.

IC50 | SMILES
< 100 nM | CC(C)(C)C(=O)n1nc(-c2ccc3c(c2)CCCC3=O)c(F)c1NCc1ccc(Cl)s1 [Compound 29, 6-(5-[(5-chlorothiophen-2-yl)methyl]amino-1-(2,2-dimethylpropanoyl)-4-fluoro-1H-pyrazol-3-yl)-1,2,3,4-tetrahydronaphthalen-1-one]
> 1000 nM | COc1ccccc1C(=O)n1nc(-c2ccc3c(c2)CCCC3O)c(F)c1NCc1ccc(Cl)s1 (stereo not shown) [Compound 30, 6-(5-[(5-chlorothiophen-2-yl)methyl]amino-4-fluoro-1-(2-methoxybenzoyl)-1H-pyrazol-3-yl)-1,2,3,4-tetrahydronaphthalen-1-ol]
< 100 nM | COc1ccccc1C(=O)n1nc(-c2ccc3c(c2)CCCC3=O)c(F)c1NCc1ccc(Cl)s1 [Compound 31, 6-(5-[(5-chlorothiophen-2-yl)methyl]amino-4-fluoro-1-(2-methoxybenzoyl)-1H-pyrazol-3-yl)-1,2,3,4-tetrahydronaphthalen-1-one]
< 100 nM | O=C(c1cccc2c1OCCO2)n1nc(C2CCOCC2)c(F)c1NCc1ccc(Cl)s1 [Compound 32, N-[(5-chlorothiophen-2-yl)methyl]-1-(2,3-dihydro-1,4-benzodioxine-5-carbonyl)-4-fluoro-3-(oxan-4-yl)-1H-pyrazol-5-amine]
< 100 nM | O=C(c1cccc2c1OCCO2)n1nc(C2CCNCC2)c(F)c1NCc1ccc(Cl)s1 [Compound 33, N-[(5-chlorothiophen-2-yl)methyl]-1-(2,3-dihydro-1,4-benzodioxine-5-carbonyl)-4-fluoro-3-(piperidin-4-yl)-1H-pyrazol-5-amine]
< 100 nM | O=C(c1cccc2c1OCCO2)n1nc(-c2ccccc2)c(F)c1NCc1ccc(Cl)s1 [Compound 34, N-[(5-chlorothiophen-2-yl)methyl]-1-(2,3-dihydro-1,4-benzodioxine-5-carbonyl)-4-fluoro-3-phenyl-1H-pyrazol-5-amine]
> 1000 nM | O=C(c1cccc2c1OCCO2)n1nc(NCc2ccc(Cl)s2)c(F)c1C1CCOCC1 [Compound 35, N-[(5-chlorothiophen-2-yl)methyl]-1-(2,3-dihydro-1,4-benzodioxine-5-carbonyl)-4-fluoro-5-(oxan-4-yl)-1H-pyrazol-3-amine]
< 100 nM | COc1ccc(C(=O)n2nc(C3CCOCC3)c(F)c2NCc2ccc(Cl)s2)c(OC)c1 [Compound 36, N-[(5-chlorothiophen-2-yl)methyl]-1-(2,4-dimethoxybenzoyl)-4-fluoro-3-(oxan-4-yl)-1H-pyrazol-5-amine]
< 100 nM | COc1ccc(C(=O)n2nc(C3CCNCC3)c(F)c2NCc2ccc(Cl)s2)c(OC)c1 [Compound 37, N-[(5-chlorothiophen-2-yl)methyl]-1-(2,4-dimethoxybenzoyl)-4-fluoro-3-(piperidin-4-yl)-1H-pyrazol-5-amine]
< 100 nM | COc1ccc(C(=O)n2nc(-c3ccccc3)c(F)c2NCc2ccc(Cl)s2)c(OC)c1 [Compound 38, N-[(5-chlorothiophen-2-yl)methyl]-1-(2,4-dimethoxybenzoyl)-4-fluoro-3-phenyl-1H-pyrazol-5-amine]
> 1000 nM | COc1ccc(C(=O)n2nc(NCc3ccc(Cl)s3)c(F)c2C2CCOCC2)c(OC)c1 [Compound 39, N-[(5-chlorothiophen-2-yl)methyl]-1-(2,4-dimethoxybenzoyl)-4-fluoro-5-(oxan-4-yl)-1H-pyrazol-3-amine]
> 1000 nM | COc1ccccc1C(=O)n1nc(C2CCN(S(=O)(=O)c3cccc4c(N(C)C)cccc34)CC2)c(F)c1NCc1ccc(Cl)s1 [Compound 40, N-[(5-chlorothiophen-2-yl)methyl]-3-(1-[5-(dimethylamino)naphthalen-1-yl]sulfonylpiperidin-4-yl)-4-fluoro-1-(2-methoxybenzoyl)-1H-pyrazol-5-amine]
< 100 nM | COc1ccccc1C(=O)n1nc(-c2ccccn2)c(F)c1NCc1ccc(Cl)s1 [Compound 43, N-[(5-chlorothiophen-2-yl)methyl]-4-fluoro-1-(2-methoxybenzoyl)-3-(pyridin-2-yl)-1H-pyrazol-5-amine]
